This is an account of results in patent US20250188069A1, “COMPOUNDS AND METHODS FOR DEGRADING CASEIN KINASE 1 ALPHA” (PIN THERAPEUTICS, INC., priority 2022, published 2025).

Structures can show the parent of a compound that is named as a salt. Bounds are passed on as bounds.

The test system of one experiment is MV-4-11 cells. As to the kind of experiment: AML cell viability assay (RealTime-Glo). The experiment is classed as cell-based. As to conditions: Homo sapiens, MV4-11; IC50 class; MV-4-11 cells, RealTime-Glo after 44 hrs of treatment (TABLE 1); read-out: Cell viability classification.
The next experiment concerns the target CK1α (Homo sapiens, UniProt P48729+Q96SW2). As to the kind of experiment: CK1α degradation, Jess assay in MV-4-11 cells. The experiment is classed as cell-based. As to conditions: MV4-11, % reduction of CK1α compared to DMSO, MV-4-11 cells for 16 hours, normalized to β-actin, read-out: CK1α degradation classification. Also noted: CK1α levels were determined in MV-4-11 cells using Jess (Protein Simple); host or cells: MV-4-11; dose or concentration left out as unconfirmed. On the procedure:
MM.1S and NCCIT cells were obtained from ATCC and grown in RPMI-1640 supplemented with 10% FBS. MV-4-11 cells were obtained from ATCC and grown in IMDM supplemented with 10% FBS. The cells were maintained at 37° C. under 5% CO2.
Compounds of the present disclosure was added to cells (final DMSO concentration of 0.1%) and incubated for 16 hours. CK1α levels were determined in MV-4-11 cells using Jess (Protein Simple). Briefly, whole cell lysates were prepared in lysis buffer (1×RIPA buffer [Thermo, 89900], 2 mM MgCl2 [Sigma, M1028], 0.05% Benzonase [Sigma, E1014], 1× Pierce protease inhibitor tablets EDTA-free [Thermo, A32965]). 6-20 μg of the lysates were analyzed using Jess with antibodies against CK1α (Abcam, ab108296) and β-actin (R&D Systems, MAB8929). Protein levels were normalized to β-actin levels. DC50 values were obtained using four-parameter non-linear regressions using Prism (GraphPad).
The efficacy of CK1α degradation of a part of compounds of the present disclosure was determined by treating MV-4-11 cells at […] (final DMSO concentration of 0.1%) for 16 hours. CK1α levels were determined using Jess and normalized to β-actin levels. The compounds are classified based on amount of CK1α degradation (% reduction of CK1α compared to DMSO) as follows. • A: Degradation is greater than or equal to 75%; • B: Degradation is less than […] & greater than or equal to 50%; • C: Degradation is less than […]; • ND: not determined.

CK1α, sequence (P48729 whole entry): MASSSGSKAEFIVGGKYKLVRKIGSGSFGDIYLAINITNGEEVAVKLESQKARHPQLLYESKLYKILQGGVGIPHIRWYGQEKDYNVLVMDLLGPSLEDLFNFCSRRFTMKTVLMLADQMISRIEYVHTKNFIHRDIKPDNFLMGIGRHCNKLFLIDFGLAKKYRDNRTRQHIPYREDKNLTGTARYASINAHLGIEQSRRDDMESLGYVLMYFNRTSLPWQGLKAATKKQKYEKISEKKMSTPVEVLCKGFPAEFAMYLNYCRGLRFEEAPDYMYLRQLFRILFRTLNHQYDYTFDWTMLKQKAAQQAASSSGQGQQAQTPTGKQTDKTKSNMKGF
CK1α, sequence (Q96SW2 whole entry): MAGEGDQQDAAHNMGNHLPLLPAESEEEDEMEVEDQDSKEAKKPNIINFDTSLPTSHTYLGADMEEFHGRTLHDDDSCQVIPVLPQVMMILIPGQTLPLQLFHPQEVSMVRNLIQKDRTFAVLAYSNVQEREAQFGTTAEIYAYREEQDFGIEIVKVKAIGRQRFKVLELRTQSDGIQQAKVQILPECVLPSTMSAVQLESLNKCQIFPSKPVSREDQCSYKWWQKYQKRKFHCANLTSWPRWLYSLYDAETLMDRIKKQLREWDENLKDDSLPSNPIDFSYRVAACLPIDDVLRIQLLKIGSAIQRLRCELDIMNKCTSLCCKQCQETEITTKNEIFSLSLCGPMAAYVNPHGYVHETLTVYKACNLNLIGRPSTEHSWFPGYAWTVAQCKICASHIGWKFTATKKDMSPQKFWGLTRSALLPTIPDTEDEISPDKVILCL
CK1α, sequence (Q16531 whole entry partner): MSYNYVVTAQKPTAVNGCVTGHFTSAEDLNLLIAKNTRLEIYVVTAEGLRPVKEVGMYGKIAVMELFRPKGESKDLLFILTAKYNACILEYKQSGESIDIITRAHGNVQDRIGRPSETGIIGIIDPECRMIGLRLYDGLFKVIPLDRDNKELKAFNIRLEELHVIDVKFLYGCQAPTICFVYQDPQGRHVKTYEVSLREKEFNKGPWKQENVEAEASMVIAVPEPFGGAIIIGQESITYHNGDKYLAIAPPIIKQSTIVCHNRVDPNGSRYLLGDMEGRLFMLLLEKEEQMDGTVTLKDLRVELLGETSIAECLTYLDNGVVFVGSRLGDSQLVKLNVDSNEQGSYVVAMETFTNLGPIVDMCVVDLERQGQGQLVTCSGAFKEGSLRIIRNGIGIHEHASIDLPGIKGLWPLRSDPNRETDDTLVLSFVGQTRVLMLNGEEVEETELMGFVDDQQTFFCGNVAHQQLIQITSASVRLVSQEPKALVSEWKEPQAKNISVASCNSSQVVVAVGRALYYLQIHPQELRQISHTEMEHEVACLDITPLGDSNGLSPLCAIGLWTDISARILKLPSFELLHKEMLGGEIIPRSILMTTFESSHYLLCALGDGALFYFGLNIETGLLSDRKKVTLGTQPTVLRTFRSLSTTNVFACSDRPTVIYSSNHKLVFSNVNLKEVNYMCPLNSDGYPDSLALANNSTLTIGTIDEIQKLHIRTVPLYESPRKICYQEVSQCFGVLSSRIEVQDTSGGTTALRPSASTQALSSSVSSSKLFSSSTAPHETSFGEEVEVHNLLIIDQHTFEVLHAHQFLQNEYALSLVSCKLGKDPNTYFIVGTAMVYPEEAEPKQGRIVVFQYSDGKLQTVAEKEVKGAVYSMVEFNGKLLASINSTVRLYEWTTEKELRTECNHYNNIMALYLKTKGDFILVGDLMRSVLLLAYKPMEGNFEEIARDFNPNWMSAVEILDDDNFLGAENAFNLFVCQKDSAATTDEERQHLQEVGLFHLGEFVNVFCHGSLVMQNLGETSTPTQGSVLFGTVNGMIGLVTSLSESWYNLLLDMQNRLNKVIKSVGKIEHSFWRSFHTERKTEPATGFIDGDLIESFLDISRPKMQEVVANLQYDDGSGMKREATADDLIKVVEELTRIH

As to `CCCCCN(c1cccc2c1CN(C1CCC(=O)NC1=O)C2=O)[C@H]1CC[C@H](N)CC1` (some centres unmarked) [Compound 88, 3-(4-(((1r,4r)-4-aminocyclohexyl)(pentyl)amino)-1-oxoisoindolin-2-yl)piperidine-2,6-dione, HCl], the IC50 in the experiment with MV-4-11 cells is under 100 nM. On CK1α, the Dmax is over 75%.

Regarding `CCCCN(C/C=C\CN)c1cccc2c1CN(C1CCC(=O)NC1=O)C2=O` (centres unmarked) [Compound 67, (Z)-3-(4-((4-aminobut-2-en-1-yl)(butyl)amino)-1-oxoisoindolin-2-yl)piperidine-2,6-dione], the IC50 in the experiment with MV-4-11 cells was under 100 nM. Moreover, the Dmax at CK1α is over 75%.

`CCCN(CCCCCN)c1cccc2c1CN(C1CCC(=O)NC1=O)C2=O` (centres unmarked) [Compound 57, 3-(4-((5-aminopentyl)(propyl)amino)-1-oxoisoindolin-2-yl)piperidine-2,6-dione]: in the experiment with MV-4-11 cells, the IC50 is under 100 nM. Besides, at CK1α, the Dmax was over 75%.

In the case of `CCCN(CCCCNC(C)=O)c1cccc2c1CN(C1CCC(=O)NC1=O)C2=O` (centres unmarked) [Compound 50, N-(4-((2-(2,6-dioxopiperidin-3-yl)-1-oxoisoindolin-4-yl)(propyl)amino)butyl)acetamide], in the experiment on MV-4-11 cells, the IC50 was under 100 nM. Further, on CK1α, the Dmax is over 75%.

On to `CC#CCN(CCCCN)c1cccc2c1CN(C1CCC(=O)NC1=O)C2=O` (centres unmarked) [Compound 116, 3-(4-((4-aminobutyl)(but-2-yn-1-yl)amino)-1-oxoisoindolin-2-yl)piperidine-2,6-dione], for which the IC50 in the experiment with MV-4-11 cells was under 100 nM. For the same compound, at CK1α, the Dmax was over 75%.

On to `CCCCCN(c1cccc2c1CN(C1CCC(=O)NC1=O)C2=O)[C@@H]1CC[C@@H](N)C1` (stereo partly drawn) [Compound 323, 3-(4-(((1R,3R)-3-aminocyclopentyl)(pentyl)amino)-1-oxoisoindolin-2-yl)piperidine-2,6-dione], for which the IC50 in the experiment with MV-4-11 cells was under 100 nM. For the same compound, on CK1α, the Dmax was over 75%.

As to `C/C=C\CN(CCCCN)c1cccc2c1CN(C1CCC(=O)NC1=O)C2=O` (centres unmarked) [Compound 69, (Z)-3-(4-((4-aminobutyl)(but-2-en-1-yl)amino)-1-oxoisoindolin-2-yl)piperidine-2,6-dione], the IC50 in the experiment with MV-4-11 cells was 100 to 1000 nM. Also, the Dmax at CK1α was 50 to 7500%.

For `NCCCCCN(CCCCN)c1cccc2c1CN(C1CCC(=O)NC1=O)C2=O` (centres unmarked) [Compound 55, 3-(4-((4-aminobutyl)(5-aminopentyl)amino)-1-oxoisoindolin-2-yl)piperidine-2,6-dione dihydrochloride], the IC50 with MV-4-11 cells was in the range of 100 to 1000 nM. Besides, at CK1α, the Dmax is over 75%.

In the case of `CCCCCCN(CCCCN)c1cccc2c1CN(C1CCC(=O)NC1=O)C2=O` (centres unmarked) [Compound 48, 3-(4-((4-aminobutyl)(hexyl)amino)-1-oxoisoindolin-2-yl)piperidine-2,6-dione], the IC50 in the experiment with MV-4-11 cells is under 100 nM. The Dmax on CK1α was over 75%.

Consider `CCCCCN(c1cccc2c1CN(C1CCC(=O)NC1=O)C2=O)[C@H]1CC[C@H](CN)CC1` (stereo partly drawn) [Compound 90, 3-(4-(((1R,4R)-4-(aminomethyl)cyclohexyl)(pentyl)amino)-1-oxoisoindolin-2-yl)piperidine-2,6-dione hydrochloride], for which, in the experiment on MV-4-11 cells, the IC50 is under 100 nM. For the same compound, at CK1α, the Dmax was over 75%.

Take `CC(C)CCCCCN(CCCCN)c1cccc2c1CN(C1CCC(=O)NC1=O)C2=O` (centres unmarked) [Compound 52, 3-(4-((4-aminobutyl)(6-methylheptyl)amino)-1-oxoisoindolin-2-yl)piperidine-2,6-dione]: in the experiment with MV-4-11 cells, the IC50 lay within 100 to 1000 nM. The Dmax at CK1α is over 75%.

With `CCCCN(CCCCN)c1cccc2c1CN(C1CCC(=O)NC1=O)C2=O` (centres unmarked) [Compound 46, 3-(4-((4-aminobutyl)(butyl)amino)-1-oxoisoindolin-2-yl)piperidine-2,6-dione], in the experiment on MV-4-11 cells, the IC50 was under 100 nM. Also, the Dmax on CK1α is over 75%.

On to `NC[C@H]1CC[C@@H](N(CCC2CC2)c2cccc3c2CN(C2CCC(=O)NC2=O)C3=O)CC1` (some centres unmarked) [Compound 358, 3-(4-(((1s,4s)-4-(aminomethyl)cyclohexyl)(2-cyclopropylethyl)amino)-1-oxoisoindolin-2-yl)piperidine-2,6-dione], for which the IC50 in the experiment with MV-4-11 cells was under 100 nM. Further, the Dmax at CK1α is over 75%.
